Target: T1, human kinase Mps-1 (Homo sapiens, UniProt P33981)
T1 construct: N-terminally GST-tagged human full length recombinant Mps-1 kinase; GST (N); purchased Invitrogen, Karslruhe, Germany PV4071
T1 sequence (P33981 1-857): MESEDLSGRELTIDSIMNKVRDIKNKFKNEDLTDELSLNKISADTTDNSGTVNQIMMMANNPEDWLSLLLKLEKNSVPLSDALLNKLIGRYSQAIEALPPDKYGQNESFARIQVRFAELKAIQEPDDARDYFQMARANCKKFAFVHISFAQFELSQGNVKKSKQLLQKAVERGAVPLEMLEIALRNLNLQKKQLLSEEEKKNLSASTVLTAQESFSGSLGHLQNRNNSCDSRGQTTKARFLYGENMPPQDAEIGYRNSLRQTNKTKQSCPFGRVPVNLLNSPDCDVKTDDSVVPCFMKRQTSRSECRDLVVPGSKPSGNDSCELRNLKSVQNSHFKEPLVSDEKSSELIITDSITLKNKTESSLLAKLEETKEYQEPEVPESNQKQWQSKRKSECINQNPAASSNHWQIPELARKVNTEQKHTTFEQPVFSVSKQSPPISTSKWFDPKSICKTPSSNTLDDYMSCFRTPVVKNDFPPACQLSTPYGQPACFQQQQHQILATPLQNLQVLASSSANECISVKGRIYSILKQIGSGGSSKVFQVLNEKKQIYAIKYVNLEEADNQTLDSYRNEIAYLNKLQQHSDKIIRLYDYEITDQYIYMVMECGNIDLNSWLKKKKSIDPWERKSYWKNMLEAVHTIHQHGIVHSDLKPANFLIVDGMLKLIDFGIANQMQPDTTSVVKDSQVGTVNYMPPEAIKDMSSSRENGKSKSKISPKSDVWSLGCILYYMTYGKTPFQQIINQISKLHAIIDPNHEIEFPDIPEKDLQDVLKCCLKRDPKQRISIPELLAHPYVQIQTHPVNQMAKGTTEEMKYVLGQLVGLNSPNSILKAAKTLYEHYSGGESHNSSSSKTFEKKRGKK
Assay: Mps-1 kinase assay (TR-FRET)
Type: biochemical
Conditions: N-terminally GST-tagged human full length recombinant Mps-1; 10 μM ATP; 1 μM peptide substrate; 60 min at 22° C.
Method: The human kinase Mps-1 phosphorylates a biotinylated substrate peptide. Detection of the phosphorylated product is achieved by time-resolved fluorescence resonance energy transfer (TR-FRET) from Europium-labelled anti-phospho-Serine/Threonine antibody as donor to streptavidin labelled with cross-linked allophycocyanin (SA-XLent) as acceptor. Compounds are tested for their inhibition of the kinase activity.
N-terminally GST-tagged human full length recombinant Mps-1 kinase (purchased from Invitrogen, Karslruhe, Germany, cat. no PV4071) was used. As substrate for the kinase reaction a biotinylated peptide of the amino-acid sequence […] (C-terminus in amide form, purchased from Biosynthan GmbH, Berlin) was used.
The concentration of Mps-1 in the assay was adjusted to the activity of the enzyme lot and was chosen appropriate to have the assay in the linear range, typical enzyme concentrations were in the range of about 1 nM (final conc. in the 5 μl assay volume).
The resulting mixture was incubated 1 h at 22° C. to allow the binding of the phosphorylated peptide to the anti-phospho(Ser/Thr)-Europium-antibody. Subsequently the amount of phosphorylated substrate was evaluated by measurement of the resonance energy transfer from the Europium-labelled anti-phospho(Ser/Thr) antibody to the Streptavidin-XLent.

| IC50 | Compound |
| --- | --- |
| 279 nM | tert-butyl {3-[4-(cyclopropylcarbamoyl)-3-methylphenyl]-6-(2-hydroxybenzoyl)imidazo[1,2-a]pyridin-8-yl}(2,2-difluoroethyl)carbamate [Example 168] |
| 1.1 nM | CNC(=O)c1ccc(-c2cnc3c(NCCC(F)(F)F)cc(Oc4cccc(O)c4)cn23)cc1C [Example 139, 4-{6-(3-Hydroxyphenoxy)-8-[(3,3,3-trifluoropropyl)amino]imidazo[1,2-a]pyridin-3-yl}-N,2-dimethylbenzamide] |
| 2.3 nM | CNC(=O)c1ccc(-c2cnc3c(NCCC(F)(F)F)cc(-c4ccc(C(N)=O)c(C)c4)cn23)cc1C [Example 160, 4-{6-(4-carbamoyl-3-methylphenyl)-8-[(3,3,3-trifluoropropyl)amino]imidazo[1,2-a]pyridin-3-yl}-N,2-dimethylbenzamide] |
| 3.8 nM | Cc1cc(-c2cnc3c(NCCC(F)(F)F)cc(Oc4cccc(F)c4F)cn23)ccc1C(=O)NC1(C#N)CC1 [Example 70, N-(1-cyanocyclopropyl)-4-{6-(2,3-difluorophenoxy)-8-[(3,3,3-trifluoropropyl)amino]imidazo[1,2-a]pyridin-3-yl}-2-methylbenzamide] |
| 13.9 nM | Cc1ccc(F)cc1Oc1cc(NCCC(F)(F)F)c2ncc(-c3ccc(C(=O)NC4(C#N)CC4)c(C)c3)n2c1 [Example 28, N-(1-cyanocyclopropyl)-4-{6-(5-fluoro-2-methylphenoxy)-8-[(3,3,3-trifluoropropyl)amino]imidazo[1,2-a]pyridin-3-yl}-2-methylbenzamide] |
| 0.8 nM | Cc1cc(-c2cnc3c(NCCC(F)(F)F)cc(Oc4cccc(F)c4)cn23)ccc1C(=O)NC1CC1F (single isomer, unassigned) [Example 12 (A or ent.-A), N-{[(1S,2S) or (1R,2R)]-2-fluorocyclopropyl}-4-{6-(3-fluorophenoxy)-8-[(3,3,3-trifluoropropyl)amino]imidazo[1,2-a]pyridin-3-yl}-2-methylbenzamide] |
| 115 nM | COCCNc1cc(Oc2ccc(F)c(F)c2)cn2c(-c3ccc(C(=O)NC4CC4)c(C)c3)cnc12 [Example 171, N-cyclopropyl-4-{6-(3,4-difluorophenoxy)-8-[(2-methoxyethyl)amino]imidazo[1,2-a]pyridin-3-yl}-2-methylbenzamide] |
| 47.4 nM | C=Cc1cc(NCCC(F)(F)F)c2ncc(-c3ccc(C(=O)N[C@H]4C[C@@H]4F)c(C)c3)n2c1 (relative stereo) [Example 97, N-[rel-(1S,2S)-2-fluorocyclopropyl]-2-methyl-4-{8-[(3,3,3-trifluoropropyl)amino]-6-vinylimidazo[1,2-a]pyridin-3-yl}benzamide] |
| 45.1 nM | C/C=C/c1cc(NCCC(F)(F)F)c2ncc(-c3ccc(C(=O)NCC)c(C)c3)n2c1 [Example 113, N-ethyl-2-methyl-4-{6-[(1E)-prop-1-en-1-yl]-8-[(3,3,3-trifluoropropyl)amino]imidazo[1,2-a]pyridin-3-yl}benzamide] |
| 77.8 nM | COCCNc1cc(Oc2cc(F)ccc2C)cn2c(-c3ccc(C(=O)NC4CC4)c(C)c3)cnc12 [Example 172] |
| 23 nM | Cc1cc(-c2cnc3c(NCCC(F)(F)F)cc(Oc4cccc(Cl)c4)cn23)ccc1C(=O)NC1(C#N)CC1 [Example 37, 4-{6-(3-chlorophenoxy)-8-[(3,3,3-trifluoropropyl)amino]imidazo[1,2-a]pyridin-3-yl}-N-(1-cyanocyclopropyl)-2-methylbenzamide] |
| 75.3 nM | C/C=C/c1cc(NCCC(F)(F)F)c2ncc(-c3ccc(C(=O)NC4(C)CC4)c(C)c3)n2c1 [Example 114, 2-Methyl-N-(1-methylcyclopropyl)-4-{6-[(1E)-prop-1-en-1-yl]-8-[(3,3,3-trifluoropropyl)amino]imidazo[1,2-a]pyridin-3-yl}benzamide] |
| 2.9 nM | Cc1cc(-c2cnc3c(NCCC(F)(F)F)cc(Oc4cccc(Cl)c4)cn23)ccc1C(=O)NC1CC1F (single isomer, unassigned) [Example 39 (A or ent.-A), 4-{6-(3-chlorophenoxy)-8-[(3,3,3-trifluoropropyl)amino]imidazo[1,2-a]pyridin-3-yl}-N-{[(1S,2S) or (1R,2R)]-2-fluorocyclopropyl}-2-methylbenzamide] |
| 13.7 nM | CCNC(=O)c1ccc(-c2cnc3c(NCCC(F)(F)F)cc(-c4ccccc4O)cn23)cc1C [Example 134, N-ethyl-4-{6-(2-hydroxyphenyl)-8-[(3,3,3-trifluoropropyl)amino]imidazo[1,2-a]pyridin-3-yl}-2-methylbenzamide] |
| 65.2 nM | C#Cc1cc(NCCC(F)(F)F)c2ncc(-c3ccc(C(=O)NC)c(C)c3)n2c1 [Example 14, 4-{6-ethynyl-8-[(3,3,3-trifluoropropyl)amino]imidazo[1,2-a]pyridin-3-yl}-N,2-dimethylbenzamide] |
| 4.9 nM | Cc1ccc(F)cc1Oc1cc(NCCC(F)(F)F)c2ncc(-c3ccc(C(=O)N[C@@H]4C[C@H]4C)c(C)c3)n2c1 (relative stereo) [Example 61, Rel-4-{6-(5-fluoro-2-methylphenoxy)-8-[(3,3,3-trifluoropropyl)amino]imidazo[1,2-a]pyridin-3-yl}-2-methyl-N-[(1R,2R)-2-methylcyclopropyl]benzamide] |
| 0.7 nM | COc1ccc(Oc2cc(NCCC(F)(F)F)c3ncc(-c4ccc(C(=O)N[C@H]5C[C@@H]5F)c(C)c4)n3c2)cc1F (relative stereo) [Example 124, N-[rel-(1S,2S)-2-fluorocyclopropyl]-4-{6-(3-fluoro-4-methoxyphenoxy)-8-[(3,3,3-trifluoropropyl)amino]imidazo[1,2-a]pyridin-3-yl}-2-methylbenzamide] |
| 6.3 nM | CCNC(=O)c1ccc(-c2cnc3c(NCCC(F)(F)F)cc(Oc4cccc(Cl)c4)cn23)cc1C [Example 35, 4-{6-(3-chlorophenoxy)-8-[(3,3,3-trifluoropropyl)amino]imidazo[1,2-a]pyridin-3-yl}-N-ethyl-2-methylbenzamide] |
| 7.3 nM | Cc1cc(-c2cnc3c(NCCC(F)(F)F)cc(Oc4cccc(F)c4)cn23)ccc1C(=O)NC1(CO)CC1 [Example 50, 4-{6-(3-Fluorophenoxy)-8-[(3,3,3-trifluoropropyl)amino]imidazo[1,2-a]pyridin-3-yl}-N-[1-(hydroxymethyl)cyclopropyl]-2-methylbenzamide] |
| 161 nM | Cc1cc(-c2cnc3c(NCCC(F)(F)F)cc(Oc4ccc(OC(F)(F)F)cc4)cn23)ccc1C(=O)NC1(C)CC1 [Example 66, 2-Methyl-N-(1-methylcyclopropyl)-4-{6-[4-(trifluoromethoxy)phenoxy]-8-[(3,3,3-trifluoropropyl)amino]imidazo[1,2-a]pyridin-3-yl}benzamide] |
| 0.8 nM | Cc1cc(-c2cnc3c(NCCC(F)(F)F)cc(-c4ccc(C(=O)NC5(C#N)CC5)c(C)c4)cn23)ccc1C(=O)NC1CC1 [Example 150, 4-(6-{4-[(1-cyanocyclopropyl)carbamoyl]-3-methylphenyl}-8-[(3,3,3-trifluoropropyl)amino]imidazo[1,2-a]pyridin-3-yl)-N-cyclopropyl-2-methylbenzamide] |
| 0.5 nM | Cc1cc(-c2cc(NCCC(F)(F)F)c3ncc(-c4ccc(C(=O)NC5CC5)c(C)c4)n3c2)ccc1C(N)=O [Example 153, 4-{6-(4-carbamoyl-3-methylphenyl)-8-[(3,3,3-trifluoropropyl)amino]imidazo[1,2-a]pyridin-3-yl}-N-cyclopropyl-2-methylbenzamide] |
| 15.3 nM | CNC(=O)c1ccc(-c2cnc3c(NCCC(F)(F)F)cc(-c4ccc(C(=O)NC5(C)CC5)c(C)c4)cn23)cc1C [Example 157, 2-methyl-N-(1-methylcyclopropyl)-4-{3-[3-methyl-4-(methylcarbamoyl)phenyl]-8-[(3,3,3-trifluoropropyl)amino]imidazo[1,2-a]pyridin-6-yl}benzamide] |
| 1.3 nM | Cc1cc(-c2cnc3c(NCCC(F)(F)F)cc(Oc4cccc(Cl)c4)cn23)ccc1C(=O)NC1CC1 [Example 31, 4-{6-(3-chlorophenoxy)-8-[(3,3,3-trifluoropropyl)amino]imidazo[1,2-a]pyridin-3-yl}-N-cyclopropyl-2-methylbenzamide] |

From patent publication US20140255392A1 (BAYER INTELLECTUAL PROPERTY GMBH, priority 2011, published 2014)
